In one test the target is T1, TAK1 (Homo sapiens, UniProt O43318).
T1 construct: purchased Invitrogen (Thermo Fisher Scientific)
T1 sequence (O43318 with tags, fused parts or gaps limits assumed): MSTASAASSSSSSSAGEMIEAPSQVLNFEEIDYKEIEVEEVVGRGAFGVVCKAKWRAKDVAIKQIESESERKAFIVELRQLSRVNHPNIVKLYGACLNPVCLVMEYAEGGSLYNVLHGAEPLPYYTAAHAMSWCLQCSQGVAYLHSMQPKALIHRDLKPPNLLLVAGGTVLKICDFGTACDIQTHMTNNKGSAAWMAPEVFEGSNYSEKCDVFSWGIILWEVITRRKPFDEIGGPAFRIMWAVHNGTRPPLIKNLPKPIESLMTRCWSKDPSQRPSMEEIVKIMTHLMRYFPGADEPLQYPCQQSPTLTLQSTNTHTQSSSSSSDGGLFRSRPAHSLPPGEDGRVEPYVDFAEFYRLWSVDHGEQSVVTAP
As to the kind of experiment: TAK1 LanthaScreen Eu Kinase Binding Assay (Invitrogen; Table 1 calls it TAK1 enzymatic assay). Particulars: for pIC50: read-out: IC50 against TAK1; for TAK1 potency, SAR result in words: Table 1 SAR discussion. The method, then: Kinase assays were performed by Invitrogen (now Thermo Fisher Scientific, Waltham, MA) or Reaction Biology Corp. (Malvern, PA). Inhibitory activity of compounds for TAK1 was evaluated using LanthaScreen® Eu Kinase Binding Assay (Invitrogen, Waltham, MA). The kinase profile of compound 13h was determined by the kinase HotSpot Profiling service of Reaction Biology Corporation. All assays were performed at Km for ATP.
Table 1. TAK1 enzymatic assay with imidazopyridine derivatives. ^a In-vitro enzymatic assay data obtained from Invitrogen^TM.
(In general: TR-FRET usually uses a lanthanide donor and a delayed reading to cut background.)

The test system of another test is MDA-MB-231 cells. As to the kind of experiment: Caspase-3/7 assay (Apo-ONE). Particulars: 10 µM, presence of TNFα (10 ng/ml), 24 h, MDA-MB-231, positive control. It counts as cell-based. How it is done:
MDA-MB-231 cells were obtained from the Korean Cell Line Bank. Cells were cultured in Roswell Park Memorial Institute (RPMI) 1640 medium containing 10% foetal bovine serum and 1% penicillin/streptomycin at 37 °C with 5% CO2 under humidified atmosphere.
The assay was performed using Apo-ONE® Homogeneous Caspase-3/7 Assay kits (Catalogue No. G7790, Promega, Madison, WI). MDA-MB-231 cells in a concentration of 5000 cells/100 µl were seeded in each well of a black 96-well plate and starved after adhering to the plate. The cells were incubated for 24 h, and the serum-starved cells were treated with either Takinib or 13h in the presence or absence of TNFα (10 ng/ml). All samples and the control contained DMSO in a final concentration of 0.5%. After another 24 h of incubation, 100 µL of Apo-ONE® caspase-3/7 reagent was added to each well, and the cells were incubated at room temperature in darkness for 2 h. Fluorescence was then measured at 530 nm with excitation at 485 nm using a FlexStation 3 Multi-Mode microplate reader (Molecular Devices). Statistical analyses of the data included a one-way ANOVA, followed by Tukey’s multiple comparison test.

pIC50: −log10 of the molar value.

With `C=CC(=O)N[C@@H]1CCN(c2nc(Nc3ccc(N4CCN(C)CC4)cc3)ncc2Cl)C1` [Compound 6], the negative logarithm of the IC50 (pIC50) on TAK1 was 6.38. Regarding `CN1CCN(c2ccc(-c3nc4c(N5CC[C@@H](NC(=O)/C(C#N)=C/c6ccccc6)C5)c(Cl)cnc4[nH]3)cc2)CC1` [Compound 13a, (R,E)-N-(1-(6-chloro-2-(4-(4-methylpiperazin-1-yl)phenyl)-3H-imidazo[4,5-b]pyridin-7-yl)pyrrolidin-3-yl)-2-cyano-3-phenylacrylamide], the “IC50 fold lower than the IC50 of 14” value at TAK1 (TAK1, compared with 14) is ~2.5 fold. Moreover, on TAK1, the pIC50 was 6.41. Regarding `Cc1csc(/C=C(\C#N)C(=O)N[C@@H]2CCN(c3c(Cl)cnc4[nH]c(-c5ccc(N6CCN(C)CC6)cc5)nc34)C2)n1` [Compound 13b, (R,E)-N-(1-(6-chloro-2-(4-(4-methylpiperazin-1-yl)phenyl)-3H-imidazo[4,5-b]pyridin-7-yl)pyrrolidin-3-yl)-2-cyano-3-(4-methylthiazol-2-yl)acrylamide], on TAK1, the “TAK1 potency, SAR result in words” value is reported as “highest potency”. For `CN1CCN(c2ccc(-c3nc4c(N5CC[C@@H](NC(=O)/C(C#N)=C/c6cccc(F)n6)C5)c(Cl)cnc4[nH]3)cc2)CC1` [Compound 13f, (R,E)-N-(1-(6-chloro-2-(4-(4-methylpiperazin-1-yl)phenyl)-3H-imidazo[4,5-b]pyridin-7-yl)pyrrolidin-3-yl)-2-cyano-3–(6-fluoropyridin-2-yl)acrylamide], the “TAK1 potency, SAR result in words” value on TAK1 is “maintained or improved potency”. The same measure, in the same setting: next, `CN1CCN(c2ccc(-c3nc4c(N5CC[C@@H](NC(=O)/C(C#N)=C/c6cccc(Cl)n6)C5)c(Cl)cnc4[nH]3)cc2)CC1` [Compound 13g, (R,E)-N-(1–(6-chloro-2–(4–(4-methylpiperazin-1-yl)phenyl)-3H-imidazo[4,5-b]pyridin-7-yl)pyrrolidin-3-yl)-3-(6-chloropyridin-2-yl)-2-cyanoacrylamide]: “increased”. As for `CN1CCN(c2ccc(-c3nc4c(N5CC[C@@H](NC(=O)/C(C#N)=C/c6cccc(C7CC7)n6)C5)c(Cl)cnc4[nH]3)cc2)CC1` [Compound 13i, (R,E)-N-(1–(6-chloro-2–(4-(4-methylpiperazin-1-yl)phenyl)-3H-imidazo[4,5-b]pyridin-7-yl)pyrrolidin-3-yl)-2-cyano-3-(6-cyclopropylpyridin-2-yl)acrylamide], the “TAK1 potency, SAR result in words” value on TAK1 is given as “increased”. Still for that read-out and setting: the same measure for `Cc1ccc(/C=C(\C#N)C(=O)N[C@@H]2CCN(c3c(Cl)cnc4[nH]c(-c5ccc(N6CCN(C)CC6)cc5)nc34)C2)nc1` [Compound 13j, (R,E)-N-(1–(6-chloro-2–(4-(4-methylpiperazin-1-yl)phenyl)-3H-imidazo[4,5-b]pyridin-7-yl)pyrrolidin-3-yl)-2-cyano-3-(5-methylpyridin-2-yl)acrylamide]: “excellent”; for `COc1ccc(/C=C(\C#N)C(=O)N[C@@H]2CCN(c3c(Cl)cnc4[nH]c(-c5ccc(N6CCN(C)CC6)cc5)nc34)C2)nc1` [Compound 13k, (R,E)-N-(1–(6-chloro-2–(4-(4-methylpiperazin-1-yl)phenyl)-3H-imidazo[4,5-b]pyridin-7-yl)pyrrolidin-3-yl)-2-cyano-3-(5-methoxypyridin-2-yl)acrylamide]: “increased”. The same measure, in the same setting: next, `Cc1ccnc(/C=C(\C#N)C(=O)N[C@@H]2CCN(c3c(Cl)cnc4[nH]c(-c5ccc(N6CCN(C)CC6)cc5)nc34)C2)c1` [Compound 13l, (R,E)-N-(1-(6-chloro-2-(4-(4-methylpiperazin-1-yl)phenyl)-3H-imidazo[4,5-b]pyridin-7-yl)pyrrolidin-3-yl)-2-cyano-3–(4-methylpyridin-2-yl)acrylamide]: “excellent”. `CCCn1/c(=N/C(=O)c2cccc(C(N)=O)c2)[nH]c2ccccc21` [Takinib, reference compound]: the caspase-3/7 activity entry in the test on MDA-MB-231 cells is on record as “significant caspase activation”. Turning to “(R)-N-(1–(5-chloro-2-((4–(4-methylpiperazin-1-yl)phenyl)amino)pyrimidin-4-yl)pyrrolidin-3-yl)acrylamide [Compound 14]”, at TAK1 (TAK1, compared with 6), the “IC50 relative to that of the pyrimidine (6)” value is “approximately twice”. Also, on TAK1, the pIC50 was 6.02.

In general, pIC50 refers to −log10 of the IC50, conventionally taken in molar units.

The values above are taken from PMC7594721, “Synthesis and biological activity of 2-cyanoacrylamide derivatives tethered to imidazopyridine as TAK1 inhibitors” (Journal of Enzyme Inhibition and Medicinal Chemistry, 2020).
